Like-named read-outs stand apart in the source and are kept apart here.
Key:
ABCA1 protein = experiment: Detection of upregulation of ABCA1 protein in cells (ApoA-I binding, high content imaging); type: cell-based; details: THP-1 macrophage cells; for EC50: 24 hrs compound incubation, read-out: EC50 [μM] ABCA1 protein increasing efficacy; for % increase of ABCA1 at 3 μM: compound at 3 μM, 24 hrs
Experimental: The ability of compounds of the invention to increase the level of ABCA1 protein is determined in replicate cultures of THP-1 macrophage cells in 96-well microplates. Cells are plated at an initial density of 100,000 cells/well in 100 μl medium and differentiated to adherent macrophages with the addition of PMA (100 nM) for 68 hrs in 10% fetal bovine serum, 3 μl/L of b-mercaptoethanol, RPMI-1640 medium. Then, cells are incubated with RPMI-1640 medium containing 1% FCS, 25 μg/ml acetylated LDL, for 24 hours at 37° C. Following incubation with acetylated LDL, cells are washed twice with 50 μl PBS and incubated with 100 μl of RPMI-1640 medium containing the compound of interest solubilized in DMSO for an additional 24 hrs. The final DMSO concentration in presence of cells is maintained at 0.5%. ApoA-I binding assay using High Content Image Analysis is initiated by replacing with fresh medium, RPMI without Phenol Red, 0.2% BSA containing AlexaFluor®647 labeled ApoA-I for 2 h/37° C./5% CO2. Then, cells are fixed with 4% Formaldehyde in PBS (15 min, RT). Following Nuclei are stained with Hoechst solution (3 μM PBS) and Cytoplasm with Cell Mask Blue (2 μg/ml PBS), 15 min, RT. Finally the stained cells are fixed with a second round of formaldehyde treatment. Fixed stained cells are washed and kept in PBS at 4° C. and can be read immediately until one month after preparation.
The Alexa Fluor 647-labeled Apolipoprotein A-I (20 nM) was prepared as follows: Human recombinant Apolipoprotein A-I (ApoA-I) was exchanged to a buffer of 0.02 M NaHCO3 at pH 8.2 on an NAP desalting column (GE Healthcare) and brought to a concentration to 40 μM (1.13 mg/ml) by adjustment with the same buffer. The ApoA-I was fluorescently labeled by incubation with Alexa Fluor carboxylic acid succimidyl ester (Alexa Fluor 647, Invitrogen A-20006) at a 2:1 molar ratio (Alexa to ApoA-I) for 1 h under shaking at RT. The remaining unconjugated label was removed by buffer exchange to 0.02M NaHCO3 at pH 8.2.
Imaging and data collection were performed on an OPERA confocal microplate imaging reader using a 20× water immersion objective and UV360 or 405 laser to identify the cell nuclei and a 635 laser to identify the fluorescent ApoA-I. Eight fields of view are captured per well. Image capture and analysis was performed with the Acapella software. Background fluorescence detected in control wells without ApoA-I was subtracted.
Using XLfit3 program (ID Business Solutions Ltd. UK), the model 205 for Dose Response One Site is used to calculate the EC50 values. […] More particularly, the compounds of the present invention have EC50 values in a range of 0.1 μM to 3 μm.

human CB1 receptor = target: T1, human CB1 receptor (Homo sapiens, UniProt P21554); experiment: CB1 receptor affinity ([3H]-CP-55,940 displacement, HEK cell membranes); type: binding; details: read-out: CB1 receptor affinity [% inhibition @ 10 μM]
T1 construct: expressed in transfected cells; host or cells: human embryonic kidney (HEK) cells, Semliki Forest Virus system, membrane preparations
T1 sequence (P21554 whole entry): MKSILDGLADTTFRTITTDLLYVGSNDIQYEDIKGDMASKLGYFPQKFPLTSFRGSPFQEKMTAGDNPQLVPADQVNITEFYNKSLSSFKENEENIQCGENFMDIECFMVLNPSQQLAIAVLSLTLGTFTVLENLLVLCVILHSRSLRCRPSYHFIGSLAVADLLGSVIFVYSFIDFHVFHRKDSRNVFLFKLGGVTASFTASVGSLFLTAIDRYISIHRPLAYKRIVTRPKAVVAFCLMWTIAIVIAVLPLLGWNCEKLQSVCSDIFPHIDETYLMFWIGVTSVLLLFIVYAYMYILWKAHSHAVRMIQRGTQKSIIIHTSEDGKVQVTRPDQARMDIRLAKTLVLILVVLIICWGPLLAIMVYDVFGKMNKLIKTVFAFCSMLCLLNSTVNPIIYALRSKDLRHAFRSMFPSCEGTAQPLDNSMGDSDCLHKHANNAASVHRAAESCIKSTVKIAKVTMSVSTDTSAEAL
Experimental: (§1) The affinity of the compounds of the invention for cannabinoid receptors was determined using membrane preparations of human embryonic kidney (HEK) cells in which the human CB1 receptor is transiently transfected using a Semliki Forest Virus system in conjunction with [3H]-CP-55,940 as radioligand. After incubation of freshly prepared cell membrane preparation with the [^3H]-ligand, with or without addition of compounds of the invention, separation of bound and free ligand was performed by filtration over glass fiber filters. Radioactivity on the filter was measured by scintillation counting.
(§2) The ability of the compounds to displace the radioligand [^3H]-CP-55,940 was measured at a concentration of 10 μM and values provided as [% inhibition @ 10 μM] both for the CB1 and CB2 receptor assay, The lower % inhibition is, the lower the likelihood of side effects based on CB1 or CB2 receptor inhibition is.

human CB2 receptor = target: T2, human CB2 receptor (Homo sapiens, UniProt P34972); experiment: CB2 receptor affinity ([3H]-CP-55,940 displacement, HEK cell membranes); type: binding; details: displacement of [3H]-CP-55,940 at 10 μM
T2 construct: expressed in transfected cells; host or cells: human embryonic kidney (HEK) cells, Semliki Forest Virus system, membrane preparations
T2 sequence (P34972 whole entry): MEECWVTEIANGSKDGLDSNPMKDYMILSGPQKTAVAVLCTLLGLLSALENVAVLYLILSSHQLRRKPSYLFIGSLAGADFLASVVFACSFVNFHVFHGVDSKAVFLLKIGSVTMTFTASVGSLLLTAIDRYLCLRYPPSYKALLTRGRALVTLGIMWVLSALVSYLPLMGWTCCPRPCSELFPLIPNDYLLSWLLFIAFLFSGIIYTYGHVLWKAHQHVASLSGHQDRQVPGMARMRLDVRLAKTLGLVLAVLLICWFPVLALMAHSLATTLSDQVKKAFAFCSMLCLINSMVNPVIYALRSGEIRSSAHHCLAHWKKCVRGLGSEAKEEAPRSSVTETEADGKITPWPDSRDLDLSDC
Experimental: as §1, with “cannabinoid CB2” for “cannabinoid”, “CB2” for “CB1”, “[^3H]-CP-55,940” for “[3H]-CP-55,940”
as §2

[1] = displacement of [3H]-CP-55,940 at 10 μM

Structure (SMILES) | inhibition at 10 µM (human CB1 receptor; [1]) [%] | inhibition at 10 µM (human CB2 receptor) [%] | EC50 (ABCA1 protein) [µM] | % increase of ABCA1 at 3 μM (ABCA1 protein) [%@ 3 μM] | inhibition at 10 µM (human CB1 receptor) [%]
O=C(NN1CCC(O)CC1)c1cnc(OCC2CC2)c(-c2ccc(Cl)cc2)c1 [Example 10, 5-(4-chlorophenyl)-6-(cyclopropylmethoxy)-N-(4-hydroxypiperidin-1-yl)-3-pyridinecarboxamide] | 34 | 2 | 1.03 | – | –
CN(NC(=O)c1cnc(OCC(F)(F)F)c(C2CCCC2)c1)c1ccccc1 [Example 18, 5-cyclopentyl-N′-methyl-N′-phenyl-6-(2,2,2-trifluoroethoxy)-3-pyridinecarboxylic acid hydrazide] | 41 | 18 | – | >45 | –
O=C(NN1CCC(CO)CC1)c1cnc(OCC(F)(F)F)c(-c2ccc(Cl)cc2)c1 [Example 26, 5-(4-chlorophenyl)-N-(4-(hydroxymethyl)piperidin-1-yl)-6-(2,2,2-trifluoroethoxy)-3-pyridinecarboxamide] | 37 | -17 | – | >45 | –
COC[C@@H]1CCCN1NC(=O)c1cnc(OCC(F)(F)F)c(C2CC2)c1 [Example 33, 5-cyclopropyl-N—((S)-2-methoxymethyl-pyrrolidin-1-yl)-6-(2,2,2-trifluoro-ethoxy)-nicotinamide] | 21 | 3 | 0.68 | – | –
CC(C)(C)OC(=O)N1CCCN1C(=O)c1cnc(OCC(F)(F)F)c(-c2ccc(Cl)cc2)c1 [Example 4, t-butyl 2-[(5-(4-chlorophenyl)-6-(2,2,2-trifluoroethoxy)-3-pyridinyl)carbonyl]-pyrazolidine-1-carboxylate] | 40 | 24 | – | >45 | –
O=C(NN1CCC(O)CC1)c1cnc(OC2CCC2)c(-c2ccc(Cl)cc2)c1 [Example 11, 5-(4-chlorophenyl)-6-cyclobutoxy-N-(4-hydroxypiperidin-1-yl)-3-pyridinecarboxamide] | 14 | -8 | 0.18 | – | –
CN(NC(=O)c1cnc(OC2CCC2)c(-c2ccco2)c1)c1ccc(Cl)nn1 [Example 51, 6-cyclobutoxy-5-furan-2-yl-nicotinic acid N′-(6-chloro-pyridazin-3-yl)-N′-methyl-hydrazide] | – | -4 | 0.47 | – | 30
O=C(NNc1ccc(F)cc1)c1cnc(OC2CCC2)c(-c2ccco2)c1 [Example 48, 6-cyclobutoxy-5-furan-2-yl-nicotinic acid N′-(4-fluoro-phenyl)-hydrazide] | 43 | -2 | 0.8 | – | –
NNC(=O)c1cnc(OCC(F)(F)F)c(-c2ccc(Cl)c(F)c2)c1 [Example 9, 5-(4-chloro-3-fluorophenyl)-6-(2,2,2-trifluoroethoxy)-3-pyridinecarboxylic acid hydrazide] | 11 | -2 | – | >45 | –
O=C(NN1CCC(CCO)CC1)c1cnc(OCC(F)(F)F)c(-c2ccc(Cl)cc2)c1 [Example 24, 5-(4-chlorophenyl)-N-(4-(2-hydroxyethyl)piperidin-1-yl)-6-(2,2,2-trifluoroethoxy)-3-pyridinecarboxamide] | 45 | -8 | – | >45 | –

Further lines, with some results ahead:

inhibition at 10 µM (human CB1 receptor; [1]) [%] | inhibition at 10 µM (human CB2 receptor) [%] | Structure (SMILES) | EC50 (ABCA1 protein) [µM] | % increase of ABCA1 at 3 μM (ABCA1 protein) [%@ 3 μM] | inhibition at 10 µM (human CB1 receptor) [%]
39 | 9 | CN(NC(=O)c1cnc(OCC(F)(F)F)c(C2CCCCC2)c1)c1ccccc1 [Example 20, 5-cyclohexyl-N′-methyl-N′-phenyl-6-(2,2,2-trifluoroethoxy)-3-pyridinecarboxylic acid hydrazide] | – | >45 | –
34 | 25 | CN(NC(=O)c1cnc(OCC(F)(F)F)c(C2CCOCC2)c1)c1ccccc1 [Example 35, 5-(tetrahydro-pyran-4-yl)-6-(2,2,2-trifluoro-ethoxy)-nicotinic acid N′-methyl-N′-phenyl-hydrazide] | 2.35 | – | –
44 | -10 | O=C(NN1CC(O)C1)c1cnc(OCC(F)(F)F)c(-c2ccc(Cl)cc2)c1 [Example 29, 5-(4-chlorophenyl)-N-(3-hydroxyazetidin-1-yl)-6-(2,2,2-trifluoroethoxy)-3-pyridinecarboxamide] | – | >45 | –
8 | 6 | O=C(NN1CCC(O)CC1)c1cnc(OCC(F)(F)F)c(C2CCCCC2)c1 [Example 12, 5-cyclohexyl-N-(4-hydroxypiperidin-1-yl)-6-(2,2,2-trifluoroethoxy)-3-pyridinecarboxamide] | 1.48 | – | –
15 | 8 | CN(NC(=O)c1cnc(OCC(F)(F)F)c(C2CC2)c1)c1ccc(F)cc1 [Example 34, 5-cyclopropyl-6-(2,2,2-trifluoro-ethoxy)-nicotinic acid N′-(4-fluoro-phenyl)-N′-methyl-hydrazide] | 0.83 | – | –
36 | 17 | CN(NC(=O)c1cnc(OCC(F)(F)F)c(C2CC2)c1)c1ccc(C#N)cc1 [Example 54, 5-cyclopropyl-6-(2,2,2-trifluoro-ethoxy)-nicotinic acid N′-(4-cyano-phenyl)-N′-methyl-hydrazide] | – | >45 | –
11 | 9 | O=C(NNc1ccc(F)cc1)c1cnc(OCC2CC2)c(C2CC2)c1 [Example 42] | 3.2 | – | –
21 | -5 | CN(NC(=O)c1cnc(OCC(F)(F)F)c(C2CCCC2)c1)c1ccc(Cl)nn1 [Example 16, N′-(6-chloropyridazin-3-yl)-5-cyclopentyl-N′-methyl-6-(2,2,2-trifluoroethoxy)-3-pyridinecarboxylic acid hydrazide] | 1.17 | – | –
19 | 9 | O=C(NN1CCOCC1)c1cnc(OCC(F)(F)F)c(C2CCCC2)c1 [Example 14, 5-cyclopentyl-N-morpholino-6-(2,2,2-trifluoroethoxy)-3-pyridinecarboxamide] | 1.08 | – | –
45 | 31 | CN(NC(=O)c1cnc(OCC(F)(F)F)c(-c2ccc(Cl)cc2)c1)c1ccccc1 [Example 5, 5-(4-chloro-phenyl)-6-(2,2,2-trifluoro-ethoxy)-3-pyridinecarboxylic acid N′-methyl-N′-phenyl-hydrazide] | – | >45 | –
29 | -23 | O=C(NN1CCOCC1)c1cnc(OCC(F)(F)F)c(C2CCCCC2)c1 [Example 19, 5-cyclohexyl-N-morpholino-6-(2,2,2-trifluoroethoxy)-3-pyridinecarboxamide] | 5.39 | – | –

— patent publication US8648099B2 (Hoffmann-La Roche Inc., priority 2011, dated 2014)
